According to PMC6804243, “Small-Molecule Inhibition of UBE2T/FANCL-Mediated Ubiquitylation in the Fanconi Anemia Pathway” (ACS Chemical Biology, 2019):
Like-named read-outs stand apart in the source and are kept apart here.

How the values were obtained:
UBE1 = tested on: T1, UBE1; assay: Gel-based ubiquitylation assay (UBE2T/GST-FANCLRING), autoubiquitylation of UBE1; format: biochemical; conditions: compound 100 μM; Western blot probed for biotin
T1 construct: purchased Boston Biochem

[1] = target: T2, UBE2T/FANCLRING (ubiquitylation of GST-FANCLRING) (Homo sapiens, UniProt Q9NW38); assay: biochemical; conditions: for LE: ligand efficiency = 1.4(–logIC50)/HAC; for inhibition at 20 µM: read-out: Primary screen % Inhibition (20 M)
T2 sequence (Q9NW38 275-375 limits assumed): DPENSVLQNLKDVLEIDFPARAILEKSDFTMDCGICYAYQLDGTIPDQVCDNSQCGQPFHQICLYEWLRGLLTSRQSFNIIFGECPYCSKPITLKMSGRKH
From the text: To identify small-molecule inhibitors of the FA pathway, we developed a high-throughput screen (HTS) compatible assay based on the FA ubiquitylation cascade (see Figure 1a, as well as Figure S1 in the Supporting Information). Given the complexity of the full FA ubiquitylation cascade, we constructed a simplified ubiquitylation reaction that would be robust for HTS purposes yet still provide many relevant protein species for small molecules to interact with. The recombinant protein assay developed used homogeneous time-resolved fluorescence (HTRF) and contained Cy5-labeled ubiquitin, the E1 enzyme UBE1, the E2 enzyme UBE2T, and the RING domain (residues 275–375) of the E3 FANCL (FANCLRING). FANCLRING was used as a surrogate substrate for ubiquitylation in the absence of the FA core and FANCD2/FANCI complexes.
Figure 1 Screening for inhibitors of the FA pathway. (a) Schematic of the HTRF ubiquitylation assay. Ubiquitylation of GST-tagged E3 (FANCLRING) by the E2 (UBE2T) places Cy5-labeled ubiquitin in close proximity to the anti-GST Tb cryptate. Excitation of the Tb cryptate donor results in FRET to the Cy5 acceptor. Simultaneous monitoring of the donor emission (620 nm) and acceptor emission (665 nm) allows for determination of the 665/620 ratio. (b) HTRF screen results showing average inhibition (n = 2) produced by compounds at 20 μM (in-house diversity library; 10 111 compounds) and 10 μM (Selleckchem epigenetic library; 119 compounds). Numbers given in parentheses represent the number of compounds per inhibition threshold.
Purified protein was concentrated using a Vivaspin-6 concentrator with a 10 kDa MW cut-off (Vivascience) and flash-frozen in small aliquots for storage at […]
Cy5 labelling of ubiquitin. To a 5 mg/mL solution of recombinant human ubiquitin (Boston Biochem) in 0.1 M NaHCO3 pH 8.3, was added a 4-fold molar excess of Cyanine5 NHS ester (Lumiprobe). The reaction was incubated at 23 °C for 4 hours in the dark. The protein was separated from unreacted dye by passage through a PD-10 desalting column (GE Healthcare) equilibrated with PBS. Purified protein was concentrated using a Vivaspin-6 concentrator with a 3 kDa MW cut-off (Vivascience) and flash-frozen in small aliquots for storage […]
Homogeneous Time-Resolved Fluorescence (HTRF) Assay. GST-FANCLRING (200 nM) was incubated with anti-GST Tb (CisBio, #61GSTTL) (2.5 ng final) at room temperature for 30 minutes in assay buffer (50 mM Tris-HCl pH 8.0, 1 mM TCEP, 5 mM MgCl2, 0.005% Tween-20). Meanwhile, 10 μL of UBE2T in assay buffer (or assay buffer alone for no enzyme controls) was incubated in a white 384-well plate (Corning) with 20 nL DMSO or compound in DMSO. After 30 minutes, the GST-RINGRING solution was added to an equal volume solution containing His-UBE1 (Boston Biochem) (16 nM), Cy5-ubiquitin (400 nM), ATP (0.8 mM) in assay buffer. 10 μL of this solution was immediately added to each well of the 384 -well plate containing UBE2T or buffer. F inal concentrations: His -UBE1 (4 nM), UBE2T (6 nM), GST -RINGRING (50 nM), Cy5-ubiquitin (100 nM), ATP (0.2 mM), compound (10 or 20 μM) in 0.1 %
(v/v) DMSO. After a 10 minute incubation at 23 °C, 5 µL of a 50 mM EDTA solution were added to each well to stop the reaction. Signal was measured at λEx 340 nm and λEm 665 nm and 620 nm using a PHERAstar FS plate reader
(BMG Labtech). A ratio was calculated as [λEm(665)/λEm(620)] × 104 for each well and this was used to determine the percent inhibition for test compounds.
Gel-based ubiquitylation assays. Assays were carried out in a total volume of 10 µL containing 20 nM His6-UBE1 (Boston Biochem), 50 nM UBE2T, 250 nM GST-E3 and 500 nM biotinylated ubiquitin (Boston Biochem) in buffer (50

[2] = library stock, 10-point dose-response, read-out: Primary screen IC50
[3] = printed beside the structures in Figure S3, read-out: IC50 (Figure S3)

SMILES | autoubiquitylation of UBE1 (UBE1) | IC50 [1, 2] | LE [1] | inhibition at 20 µM ([1]; primary screen, compound at 20 μM (head prints '20 M'), n = 2) | IC50 [1, 3] | inhibition at 20 µM [1]
NC(=O)[C@@H]1CCCN1C(=O)c1cc(-n2cccc2)ccc1Cl [CU12] | somewhat impaired the autoubiquitylation of UBE1 | 11.5 µM | 0.32 | 107% | 9.9 µM | 
NCCN1C(=O)CC[C@H]2CN(Cc3cccc(-c4ccco4)c3)CC[C@H]21 [CU1] | did not affect ubiquitylation of either UBE2T or UBE1 | 15.2 µM | 0.23 |  | 56 µM | 48.4%
CCN1CCN(c2cc(C)nc3nc(CN4CCCCC4C)nn23)CC1 (centres unmarked) [CU2] | did not affect ubiquitylation of either UBE2T or UBE1 | 8.4 µM | 0.26 |  | 14.8 µM | 63.4%
Cc1nnc(N(C)CC2CCN(CC(C)O)CC2)c(C#N)c1C (centres unmarked) [CU9] | did not affect ubiquitylation of either UBE2T or UBE1 | 31.4 µM | 0.26 |  | 45.4 µM | 48.2%
